Test results published in the supplement of paper PMC10307832.

Legend:
Experiment in all cases: relative viability (nuclei count vs DMSO), 5 days (fraction); higher = more cells survive
[1] = compound: C1=CC2=NC=CN=C2C=C1/C=C/3\C(=O)NC(=O)S3 + CC(=O)c1c(C)c2cnc(Nc3ccc(N4CCNCC4)cn3)nc2n(C2CCCC2)c1=O [Palbociclib] (partner 0.5 µM)
How it was run: (§1)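 Lung cancer cell lines in 1536-well plates got either a single drug or a fixed anchor-drug dose together with five library-drug doses (not always all listed) in √10 steps, by pin tool, on the day after seeding. Nuclei were counted after 5 days, and relative viability is the treated-to-vehicle ratio of nuclei counts. Values are medians of duplicate plates.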

BGJ398 + Decitabine = compound: CCN1CCN(c2ccc(Nc3cc(N(C)C(=O)Nc4c(Cl)c(OC)cc(OC)c4Cl)ncn3)cc2)CC1 [BGJ398] + Nc1ncn([C@H]2C[C@H](O)[C@@H](CO)O2)c(=O)n1 [Decitabine] (partner 2 µM)
How it was run: as §1

[2] = compound: C1=CC2=NC=CN=C2C=C1/C=C/3\C(=O)NC(=O)S3 + Nc1nc2[nH]cc(CCc3ccc(C(=O)N[C@@H](CCC(=O)O)C(=O)O)cc3)c2c(=O)[nH]1 [Pemetrexed] (partner 0.2 µM)
How it was run: as §1

BGJ398 + Alpelisib = compound: CCN1CCN(c2ccc(Nc3cc(N(C)C(=O)Nc4c(Cl)c(OC)cc(OC)c4Cl)ncn3)cc2)CC1 [BGJ398] + Cc1nc(NC(=O)N2CCC[C@H]2C(N)=O)sc1-c1ccnc(C(C)(C)C(F)(F)F)c1 [Alpelisib] (partner 2 µM)
How it was run: as §1

Row | Cell Line | relative viability ([1]; first compound 0.02 µM) | relative viability ([1]; first compound 0.06325 µM) | relative viability ([1]; first compound 0.2 µM) | relative viability ([1]; first compound 0.6325 µM) | relative viability ([1]; first compound 2 µM) | relative viability (BGJ398 + Decitabine; first compound 0.01 µM) | relative viability (BGJ398 + Decitabine; first compound 0.03162 µM) | relative viability (BGJ398 + Decitabine; first compound 0.1 µM) | relative viability (BGJ398 + Decitabine; first compound 0.3162 µM) | relative viability (BGJ398 + Decitabine; first compound 1 µM) | relative viability ([2]; first compound 0.02 µM) | relative viability ([2]; first compound 0.06325 µM) | relative viability ([2]; first compound 0.2 µM) | relative viability ([2]; first compound 0.6325 µM) | relative viability ([2]; first compound 2 µM) | relative viability (BGJ398 + Alpelisib; first compound 0.01 µM) | relative viability (BGJ398 + Alpelisib; first compound 0.03162 µM) | relative viability (BGJ398 + Alpelisib; first compound 0.1 µM) | relative viability (BGJ398 + Alpelisib; first compound 0.3162 µM) | relative viability (BGJ398 + Alpelisib; first compound 1 µM)
1 | NCI-H838 | 0.217 | 0.25 | 0.233 | 0.179 | 0.17 | 0.389 | 0.463 | 0.552 | 0.463 | 0.378 | 0.247 | 0.272 | 0.25 | 0.238 | 0.197 | 0.84 | 0.955 | 0.968 | 0.895 | 0.732
2 | NCI-H1755 | 0.428 | 0.429 | 0.461 | 0.432 | 0.446 | 0.675 | 0.738 | 0.721 | 0.686 | 0.634 | 0.394 | 0.404 | 0.465 | 0.428 | 0.444 | 0.861 | 0.965 | 1.05 | 0.908 | 0.889
3 | HCC-78 | 0.471 | 0.475 | 0.483 | 0.535 | 0.423 | 0.616 | 0.701 | 0.682 | 0.777 | 0.695 | 0.925 | 0.864 | 0.932 | 0.838 | 0.927 | 0.274 | 0.311 | 0.378 | 0.366 | 0.338
4 | IA-LM | – | – | – | – | – | – | – | – | – | – | – | – | – | – | – | 0.541 | 0.898 | 0.733 | 0.625 | 0.702
5 | NCI-H322M | 0.553 | 0.491 | 0.477 | 0.454 | 0.455 | 0.755 | 0.723 | 0.771 | 0.602 | 0.833 | 0.622 | 0.631 | 0.646 | 0.618 | 0.506 | 0.772 | 0.741 | 0.851 | 0.761 | 0.813
6 | NCI-H3122 | 0.204 | 0.213 | 0.173 | 0.194 | 0.186 | 0.394 | 0.416 | 0.458 | 0.478 | 0.42 | 0.224 | 0.216 | 0.205 | 0.2 | 0.195 | 0.835 | 0.844 | 0.763 | 0.717 | 0.832
7 | COR-L23 | 0.276 | 0.281 | 0.295 | 0.3 | 0.235 | 0.36 | 0.438 | 0.507 | 0.42 | 0.365 | 0.187 | 0.202 | 0.202 | 0.19 | 0.179 | 0.755 | 0.872 | 0.686 | 0.843 | 0.824
8 | NCI-H2087 | 0.195 | 0.229 | 0.215 | 0.268 | 0.222 | 0.178 | 0.288 | 0.263 | 0.325 | 0.234 | 0.612 | 0.734 | 0.632 | 0.623 | 0.615 | 0.99 | 1.17 | 1.05 | 1.19 | 1.18
9 | LC-2-ad | 0.463 | 0.455 | 0.481 | 0.53 | 0.352 | 0.699 | 0.855 | 0.899 | 0.771 | 0.852 | 0.292 | 0.286 | 0.276 | 0.283 | 0.279 | 0.926 | 0.871 | 0.924 | 0.968 | 0.915
10 | ChaGo-K-1 | 0.888 | 0.69 | 0.971 | 0.917 | 0.947 | 0.503 | 0.477 | 0.562 | 0.558 | 0.537 | 0.263 | 0.277 | 0.262 | 0.265 | 0.256 | – | – | – | – | –
11 | NCI-H522 | 1.06 | 1.08 | 0.876 | 0.816 | 0.749 | 0.665 | 0.625 | 0.685 | 0.665 | 0.644 | 1 | 0.871 | 1.12 | 0.925 | 0.747 | – | – | – | – | –
12 | NCI-H1299 | – | – | – | – | – | – | – | – | – | – | – | – | – | – | – | 0.999 | 1.07 | 1 | 1.05 | 1.08
13 | NCI-H1650 | 0.218 | 0.43 | 0.37 | 0.347 | 0.343 | 0.451 | 0.424 | 0.411 | 0.415 | 0.361 | 0.376 | 0.381 | 0.319 | 0.357 | 0.394 | – | – | – | – | –
14 | NCI-H1648 | 0.301 | 0.223 | 0.345 | – | 0.23 | 0.571 | – | 0.511 | 0.476 | 0.402 | 0.648 | 0.576 | 0.649 | – | 0.777 | – | – | – | – | –
15 | NCI-H596 | – | – | – | – | – | 1.15 | 0.885 | 0.977 | 0.991 | 0.778 | 0.498 | 0.541 | 0.543 | 0.533 | 0.483 | 0.608 | 0.442 | 0.506 | 0.441 | 0.561
16 | NCI-H727 | 0.549 | 0.683 | 0.637 | 0.649 | 0.556 | 0.859 | 0.862 | 0.965 | 0.862 | 0.669 | – | – | – | – | – | 0.625 | 0.665 | 0.524 | 0.578 | 0.5
17 | NCI-H2342 | 0.508 | 0.524 | 0.547 | 0.484 | 0.498 | 0.725 | 0.808 | 0.714 | 0.758 | 0.815 | 0.615 | 0.859 | 0.713 | 0.759 | 0.644 | – | – | – | – | –
18 | SW 900 | 0.491 | 0.545 | 0.511 | – | 0.602 | 0.447 | 0.421 | 0.371 | 0.469 | 0.43 | 0.491 | 0.471 | 0.481 | – | 0.487 | – | – | – | – | –
19 | A549 | – | – | – | – | – | 0.155 | 0.288 | 0.232 | 0.289 | 0.223 | – | – | – | – | – | 0.782 | 0.864 | 0.847 | 0.635 | 0.872
20 | NCI-H1563 | – | – | – | – | – | – | – | – | – | – | 0.753 | 0.684 | 0.916 | 0.781 | 0.749 | 0.858 | 0.96 | 0.802 | 0.778 | 0.677
21 | ABC-1 | 0.75 | 0.699 | 0.726 | 0.662 | 0.645 | 1.17 | 0.955 | 0.966 | – | 1.18 | – | – | – | – | – | 0.96 | 1.04 | 1.03 | 1.15 | 0.836
